Source: US20240122926A1, “APELIN RECEPTOR MODULATORS FOR TREATING MUSCLE CONDITIONS” (priority 2022, published 2024)
“Also recorded” adds a separate entry of the source.

Columns and labels:
[1] = tested on: healthy volunteers aged ≥65 years; test: Phase 1b bed rest study, safety (TEAEs); format: in vivo
Experimental: Adverse events are coded using the Medical Dictionary for Regulatory Activities. The number of events, incidence, and percentage of TEAEs are calculated overall by system organ class, preferred term, and treatment group for each cohort and treatment group. The number and percentage of subjects with TEAEs are further summarized by severity and relationship to study drug. AEs related to study drug, AEs leading to withdrawal, SAEs, and deaths are also similarly summarized and/or listed in a similar manner.

serum proteome = test: Phase 1b bed rest study, serum proteomic profiling; format: in vivo, human
Experimental: Proteomic profiling and analysis were performed on serum collected from the phase 1B clinical trial subjects (treated vs placebo) as described above. Eleven (11) treated and 10 placebo subject's serum levels were profiled for their proteomics collected at day −1 (baseline), day 5 and day 11. A linear regression model was implemented with an interaction term between treatment group and day to identify proteins whose differential abundance between the treatment groups influenced the average rate of change per day of a given protein. This model was fit separately for all proteins measured, and the resulting coefficient (on the interaction term) for each protein was used to rank order all proteins from most positive to most negative coefficient.
For each human aging cohort phenotype (various physical function phenotypes and mortality), two protein sets consisting respectively (to preserve directionality) of the proteins positively and negatively associated (p<0.05) with that phenotype. Significant phenotypes in the right-hand graph of FIG. 48 and FIG. 49 with their GSEA plots and p-values (significant phenotypes were not shown when their protein sets overlapped substantially with those of already shown phenotypes).

[2] = Phase 1 study BGE-105-101 Part A (SAD), pharmacokinetics after IV infusion; format: in vivo, human; details: for Dose-normalized AUCinf / Dose-normalized Cmax: unit assumed; for AUC(0-t) / AUC(0-inf) / half-life / Cmax: human, plasma; for AUC(0-t) / AUC(0-inf) / half-life: intravenous; for Cmax: iv, IV infusion
Experimental: After a baseline period of 24 hours in the clinic, all subjects receive a LD, 1-hour infusion on Day 1. After a 48-hour wash-out period, in which PK and PK/PD data is collected, subjects receive a 23-hour infusion (1-hour LD followed by a 22-hour maintenance dose). See FIG. 10 for the different dose levels in each SAD cohort. See e.g., Table 3 below. Part A is double-blinded. The cohorts of Part A is conducted sequentially starting with SAD cohort 1.
On Day 1 for Part A, subjects receive LD, 1-hour infusion. On Day 3, after a 48-hour washout period, subjects then receive a 23-hour infusion (1-hour LD followed by a 22-hour MD). No earlier than 24 hours after the end of infusion, subjects is discharged from the clinic on Day 5 (End of Treatment Period [EOTP]). A treatment protocol for the SAD cohorts of Part A is outlined in FIG. 12 and is described in Table 9 below.
Relevant plasma PK parameters are derived for BGE-105 by standard noncompartmental methods and tabulated along with descriptive statistics and graphs.

[3] = tested on: fast and slow skeletal muscle; test: snRNAseq of vastus lateralis muscle biopsies from Phase 1b study; format: in vivo, human
From the text: FIG. 40 illustrates nuclei isolation for 10× Genomics single cell transcriptome gene expression technology used to assess tissue samples. […] Tissue samples were collected from patients and processed in a laboratory. Tissues were dissociated and cleaned up. The debris were removed and the sample (e.g., nuclei) was washed, resuspended for multiple cycles according to routine tissue processing procedures. Cell nuclei were visualized and counted using standard transcriptome gene expression technologies 10× Genomics single cell library technology is used for assessing tissue samples.
Cell type clustered include fast skeletal muscle, slow skeletal muscle (type 1), myofibroblast, tenocytes, fibroblasts, muscle stem cells, pericytes, smooth muscle, endothelial cells, T/NK cells, and adipocytes. Two methods and two annotations were used.

human APLNR = molecular target: T1, human APLNR (Homo sapiens, UniProt P35414); test: cell-based; details: CHO, read-out: maximum effect (Emax)
T1 sequence (P35414 1-380): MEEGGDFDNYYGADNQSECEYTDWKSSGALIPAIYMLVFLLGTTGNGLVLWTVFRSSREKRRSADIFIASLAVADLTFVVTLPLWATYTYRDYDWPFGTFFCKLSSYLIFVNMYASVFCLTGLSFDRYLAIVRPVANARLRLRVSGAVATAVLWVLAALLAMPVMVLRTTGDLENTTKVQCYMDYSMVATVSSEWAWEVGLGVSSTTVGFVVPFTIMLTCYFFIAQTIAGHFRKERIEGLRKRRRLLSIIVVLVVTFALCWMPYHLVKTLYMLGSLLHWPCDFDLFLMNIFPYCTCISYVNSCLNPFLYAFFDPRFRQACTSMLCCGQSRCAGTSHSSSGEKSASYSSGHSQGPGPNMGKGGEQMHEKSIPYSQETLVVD
Experimental: APLNR activation was determined by β-arrestin recruitment as measured by the ProLink […] complementation technology (93-0001, DiscoveRx). In brief, CHO cells stably expressing APLNR were seeded and incubated overnight at 37° C. The compounds were tested in duplicate and diluted to obtain a 10-point curve with 3-fold serial dilutions (<1% DMSO). The compounds and cells were incubated for 3 hours at 37° C. After the incubation period the detection reagents were added and the plate chemiluminescent signal was measured after 30 min at RT.

[4] = 9-month oral toxicity study in dogs; format: in vivo, dog
Experimental: The updated exposure margins considering the highest maximum exposures in rats and dogs are calculated as follows: maximum exposure in the rat (male) was in the 14-day IV study and at the 300 mg/kg dose, the AUClast is 1070 μg*hr/mL; maximum exposure in dogs occurred at the 300 mg/kg dose in the 9-month oral toxicity study and the AUClast is 1310*μg·hr/mL.

[5] = SAD1 (60 mg/360 mg), Day 1, mean
[6] = SAD2 (120 mg/720 mg), Day 1, mean
[7] = SAD3 (240 mg/1440 mg), Day 1, mean

SMILES: COc1cccc(OC)c1-n1c(NS(=O)(=O)[C@@H](C)[C@H](C)c2ncc(C)cn2)nnc1-c1cncc(C)c1 [BGE-105, (2S,3R)—N-(4-(2,6-dimethoxyphenyl)-5-(5-methyl-3-pyridinyl)-4H-1,2,4-triazol-3-yl)-3-(5-methyl-2-pyrimidinyl)-2-butanesulfonamide]
- number of volunteers (out of 11) exhibiting TEAEs ([1]; Cohort 1B): 7
- percent of volunteers exhibiting TEAEs ([1]; Cohort 1B): 64%
- serious / severe adverse effects ([1]; Phase 1b bed rest study): no serious adverse effects; also recorded: no severe adverse effects
- tolerability ([1]; Phase 1b bed rest study): well tolerated
- number of proteins associated with grip strength (out of 379) changed by treatment (serum proteome): 58
- number of proteins associated with walk speed (out of 526) changed by treatment (serum proteome): 35
- number of proteins associated with frailty (out of 992) changed by treatment (serum proteome; p<0.05): 69
- dose proportionality / linearity of PK ([2]; 3 SAD cohorts, dose vs Cmax and AUC): dose proportionality; also recorded: linear
- Dose-normalized AUCinf [2, 5]: 0.66 µg·h/mL/mg
- Dose-normalized Cmax [2, 5]: 0.12 µg/mL/mg
- Dose-normalized AUCinf [2, 6]: 0.49 µg·h/mL/mg
- Dose-normalized Cmax [2, 6]: 0.11 µg/mL/mg
- Dose-normalized AUCinf [2, 7]: 0.5 µg·h/mL/mg
- Dose-normalized Cmax [2, 7]: 0.11 µg/mL/mg
- AUC(0-t) ([2]; 60 mg, SAD1 (60 mg/360 mg), Day 1, mean, read-out: AUC0-24): 34.7 µg·h/mL
- AUC(0-t) ([2]; 60 mg, SAD1 (60 mg/360 mg), Day 1, mean, read-out: AUClast): 37.4 µg·h/mL
- AUC(0-t) ([2]; 120 mg, SAD2 (120 mg/720 mg), Day 1, mean, read-out: AUC0-24): 53.7 µg·h/mL
- AUC(0-t) ([2]; 120 mg, SAD2 (120 mg/720 mg), Day 1, mean, read-out: AUClast): 56.8 µg·h/mL
- AUC(0-t) ([2]; 240 mg, SAD3 (240 mg/1440 mg), Day 1, mean, read-out: AUC0-24): 107 µg·h/mL
- AUC(0-t) ([2]; 240 mg, SAD3 (240 mg/1440 mg), Day 1, mean, read-out: AUClast): 114 µg·h/mL
- AUC(0-t) ([2]; SAD1 (60 mg/360 mg), Day 3, mean, read-out: AUC0-24): 173 µg·h/mL
- AUC(0-t) ([2]; SAD1 (60 mg/360 mg), Day 3, mean, read-out: AUClast): 306 µg·h/mL
- AUC(0-t) ([2]; SAD2 (120 mg/720 mg), Day 3, mean, read-out: AUC0-24): 267 µg·h/mL
- AUC(0-t) ([2]; SAD2 (120 mg/720 mg), Day 3, mean, read-out: AUClast): 450 µg·h/mL
- AUC(0-t) ([2]; SAD3 (240 mg/1440 mg), Day 3, mean, read-out: AUC0-24): 612 µg·h/mL
- AUC(0-t) ([2]; SAD3 (240 mg/1440 mg), Day 3, mean, read-out: AUClast): 1060 µg·h/mL
- AUC(0-t) ([2]; highest dose (240 mg/1440 mg), read-out: AUClast): 1060 µg·h/mL
- AUC(0-inf) [2, 5]: 39600 ng·h/mL
- half-life [2, 5]: 546 min
- AUC(0-inf) [2, 6]: 58800 ng·h/mL
- half-life [2, 6]: 516 min
- AUC(0-inf) [2, 7]: 119000 ng·h/mL
- half-life [2, 7]: 534 min
- Cmax ([2]; 60 mg, SAD1 (60 mg/360 mg), Day 1, mean): 7430 ng/mL
- Cmax ([2]; 120 mg, SAD2 (120 mg/720 mg), Day 1, mean): 13700 ng/mL
- Cmax ([2]; 240 mg, SAD3 (240 mg/1440 mg), Day 1, mean): 26700 ng/mL
- Cmax ([2]; SAD1 (60 mg/360 mg), Day 3, mean): 10100 ng/mL
- Cmax ([2]; SAD2 (120 mg/720 mg), Day 3, mean): 14800 ng/mL
- Cmax ([2]; SAD3 (240 mg/1440 mg), Day 3, mean): 35600 ng/mL
- number of muscle proteins (out of 18) statistically highly expressed in fast skeletal muscle ([3]; treated compared to placebo): 15
- differentially expressed genes associated with treatment, fast skeletal muscle ([3]; vastus lateralis biopsies): 3418
- differentially expressed genes associated with treatment, slow skeletal muscle (Type 1) ([3]; vastus lateralis biopsies): 1571
- Emax (human APLNR): 114%
- predicted human exposure margin Human:Dog ([4]; 240 mg loading dose + 1440 mg IV for 22 hours, 1036/1310): 0.79
- NOAEL ([4]; dog): maximum dose tested
- AUC(0-t) ([4]; dog, in vivo, dogs, 9-month oral toxicity study, 300 mg/kg, read-out: AUClast, maximum exposure): 1310 µg·h/mL
